Experimental data: patent publication US11083724B2, “Rimegepant for CGRP related disorders” (Biohaven Pharmaceutical Holding Company Ltd., priority 2018, dated 2021)

Tested on: subjects with Acute Migraines
Experiment: Study 303 (BHV3000-303, NCT03461757): Phase 3 double-blind placebo-controlled trial, rimegepant 75 mg ODT, acute treatment of migraine
Format: in vivo, human
Description: Clinical Trial—BHV3000-303: Phase 3: Double-Blind, Randomized, Placebo-Controlled, Safety and Efficacy Trial of BHV-3000 (Rimegepant) Orally Discintegrating Tablet (ODT) for the Acute Treatment of Migraine (ClinicalTrials.gov Identifier: NCT03461757) A phase 3 clinical study was conducted with 1812 participants, as follows. The purpose of this study is to compare the efficacy of BHV-3000 (rimegepant ODT) versus placebo in subjects with Acute Migraines. Study Design • Study Type: Interventional (Clinical Trial) • Actual Enrollment: 1812 participants • Allocation: Randomized • Intervention Model: Parallel Assignment • Masking: Triple (Participant, Care Provider, Investigator) • Primary Purpose: Treatment • Official Title: BHV3000-303: Phase 3, Double-Blind, Randomized, Placebo Controlled, Safety and Efficacy Trial of BHV-3000 (Rimegepant) Orally Disintegrating Tablet (ODT) for the Acute Treatment of Migraine • Actual Study Start Date: Feb. 27, 2018 • Actual Primary Completion Date: Oct. 8, 2018 • Actual Study Completion Date: Oct. 15, 2018 Arms and Interventions Outcome Measures Primary Outcome Measures: 1. Pain freedom of rimegepant compared with placebo in the acute treatment of migraine will be measured using the number of evaluable subjects that report no pain at 2 hours post-dose. [Time Frame: Two hours post dose] Pain will be measured on a 4 point Likert scale (0=none, 1=mild, 2=moderate, 3=severe) 2. Freedom from the most bothersome symptom (MBS) of rimegepant compared with placebo will be measured using the number of evaluable subjects that report the absence of their MBS at 2 hours post-dose. [Time Frame: Two hours post dose] The MBS (nausea, phonophobia or photophobia) will measured using a binary scale (0=absent, 1=present). Secondary Outcome Measures: 1. To measure rimegepant compared to placebo on Pain Relief, at 2 hours post-dose, that report a pain level of moderate or severe at baseline and then report a pain level of none or mild. [Time Frame: 2 hours post-dose] Pain Relief as measured by a 4 point numeric rating scale (None, Mild, Moderate, Severe) 2. Functional disability scale [Time Frame: 2 hour post-dose] Subjects self-report “normal” on the functional disability scale 3. […] [Time Frame: 2 hours-24 hours post-dose] Sustained Pain Relief as measured by a 4 point numeric rating scale (None, Mild, Moderate, Severe) 4. […] [Time Frame: 2 to 24 hours post dose] Most bothersome symptom 5. To measure rimegepant compared to placebo on the probability of requiring rescue medication will be assessed using the number of subjects that take rescue medication within […] administration of study medication (BHV3000 or placebo). [Time Frame: up to 24 hours post-dose] Requiring Rescue Medication 6. Sustained ability to function at a normal level as measured by the Functional disability scale [Time Frame: 2 to 24 hours post dose] Subjects self-report “normal” on the functional disability scale 7. […] [Time Frame: 2 hours-48 hours post-dose] Sustained Pain Relief as measured by a 4 point numeric rating scale (None, Mild, Moderate, Severe) 8. Rimegepant compared to placebo on pain freedom from most bothersome symptom from 2-48 hours post dose. [Time Frame: 2 to 48 hours post dose] Most bothersome symptom 9. Sustained ability to function at a normal level as measured by the Functional disability scale [Time Frame: 2 to 48 hours post dose] Subjects self-report “normal” on the functional disability scale 10. Rimegepant compared to placebo by tabulating the number of subjects that report the absence of photophobia at 2 hours post-dose in the subset of subjects that reported the presence of photophobia at headache baseline [Time Frame: 2 hours post-dose] Freedom from Photophobia 11. Functional disability scale [Time Frame: 90 minutes post dose] Subjects self-report “normal” on the functional disability scale 12. […] [Time Frame: 90 minutes post dose] Pain Relief as measured by a 4 point numeric rating scale (None, Mild, Moderate, Severe) 13. […]

[1] = Study 303, n = 669, exploratory
[2] = Study 303, single 75 mg ODT, N = 669

Q: Which results are given for `N[C@@H]1c2cccnc2[C@H](OC(=O)N2CCC(n3c(=O)[nH]c4ncccc43)CC2)CC[C@H]1c1cccc(F)c1F` [Rimegepant, [(5S,6S,9R)-5-amino-6-(2,3-difluorophenyl)-6,7,8,9-tetrahydro-5H-cyclohepta[b]pyridin-9-yl] 4-(2-oxo-3H-imidazo[4,5-b]pyridin-1-yl)piperidine-1-carboxylate]?
A: Freedom from MBS at 2 hours, Difference (rimegepant minus placebo) (Study 303): 8.3%; Pain Freedom at 2 hours, Difference (rimegepant minus placebo) (Study 303): 10.3%; incidence of any single adverse event (AE) in the rimegepant group (Study 303): ≤ 1.6%; patients with LFTs >3×ULN (Study 303): one; Sustained Pain Relief 3 to 48 hrs (Study 303, n = 669): 49.9%; Sustained Pain Relief 3 to 24 hrs [1]: 56.4%; Sustained Pain Relief 4 to 24 hrs [1]: 61.7%; Sustained Pain Relief 4 to 48 hrs [1]: 54.7%; Pain Relief @ 2 hours (Study 303, secondary 1): 59.3%; Functional Disability at 2 hours (Study 303, secondary 2, self-report normal): 38.1%; SP Relief (Sustained Pain Relief) 2 to 24 hours (Study 303, secondary 3): 47.8%; MBS 2 to 24 (Study 303, secondary 4, sustained freedom from MBS): 27.1%; Prob of Rescue Meds in 24 hours (Study 303, secondary 5): 14.2%; Functional Disability 2 to 24 (Study 303, secondary 6): 29.6%; SP Relief (Sustained Pain Relief) 2 to 48 hours (Study 303, secondary 7): 42.2%; MBS 2 to 48 (Study 303, secondary 8): 23.2%; Functional Disability 2 to 48 (Study 303, secondary 9): 26.0%; Photophobia @ 2 hours (Study 303, secondary 10, freedom from photophobia): 33.4%; Functional Disabilty @ 90 minutes (Study 303, secondary 11): 30.2%; Pain Relief @ 90 minutes (Study 303, secondary 12): 49.6%; SP Freedom 2 to 24 hours (Study 303, secondary 13): 15.7%; MBS Freedom at 90 minutes (Study 303, secondary 14): 27.4%; Pain Freedom @ 90 minutes (Study 303, secondary 15): 15.1%; Phonophobia @ 2hours (Study 303, secondary 16, freedom from phonophobia): 41.7%; SP Freedom 2 to 48 hours (Study 303, secondary 17): 13.5%; Pain Relief at 60 minutes (Study 303, secondary 18): 36.8%; Functional Disability at 60 minutes (Study 303, secondary 19): 22.3%; Nausea @ 2 hours (Study 303, secondary 20, freedom from nausea): 51.0%; Pain Relpase 2 to 48 (Study 303, secondary 21): 36.6%; Freedom from MBS at 2 hours [2]: 35.1%; Pain Freedom at 2 hours [2]: 21.2%; clinical benefit through 48 hours on pain relief, pain freedom, most bothersome symptom, functional disability (Study 303, single dose, versus placebo): Lasting clinical benefit
